Literature values as cited in patent US9554577B2, “Herbicidal formulation” (priority 2011, dated 2017).

Legend:
[1] = chlorinated hydrocarbons and aromatic solvents such as methylene chloride, acetone and xylene

Structure (SMILES): CCC(CC)Nc1c([N+](=O)[O-])cc(C)c(C)c1[N+](=O)[O-] [Pendimethalin, n-(1-ethylpropyl)-3,4-dimethyl-2,6-dinitrobenzenamine]
- solubility in organic solvents [1]: soluble
- stability under acidic and alkaline conditions: stable
